{"source": "paper PMC4884932", "about": "“Selective brain penetrable Nurr1 transactivator for treating Parkinson's disease” (Oncotarget, 2016)", "key": {"[1]": {"assay": "Plasma pharmacokinetics after oral gavage", "type": "in vivo", "settings": "SD, rat", "experimental": "[…] Rats were treated with the designated dose by daily gavage. Acute plasma PK was conducted on day one and acute-on-chronic plasma PK was conducted on day 24. Pharmacokinetic assessment was conducted by collecting of blood at baseline (prior gavage), 0.25, 0.5, 1, 2, 4, 8, 12 and 24h post gavage. […] The spiked plasma was dialyzed at 37°C against an isotonic sodium phosphate buffer to achieve equilibrium. At the end of dialysis, the plasma and buffer level of IRX4204 were quantified by LC/MS/MS.\nThe LC/MS system was comprised of Waters Acquity Ultra Performance Liquid Chromatography (UPLC) coupled to a XEVO-TQS (Waters). The samples were analyzed by reverse-phase HPLC using a Waters Atlantis T3 column (150 × 2.1mm, 5um). The mobile phase was nebulized using heated nitrogen in a Z-spray source/interface set to electrospray negative ionization mode. The ionized compounds were detected using MS/MS. […] The detection was linear between 2.5nM to 10nM."}, "[2]": {"tested_on": "6-OHDA lesioned rats", "assay": "DAT and TH content in the striatum by Western blot, 6-OHDA lesioned rats", "type": "in vivo, rat", "settings": "10mg/kg/day gavage for three weeks", "experimental": "(§1) All surgical procedures were performed under general anesthesia with ketamine/xylazine. 2μl 6-OHDA (20 mg/ml in 0.02% ascorbic acid) was stereotaxically injected into the right striatum of male SD rats. Lesion coordinates were set according to bregma and dura in mm: ML-3.7; AP-1.0; DV-5.5. The injection rate was 2μl/5 min and the injecting needle was left for 2 minutes after injection to avoid back flow. Apomorphine-induced rotations (see below) were assessed three days post-lesion and rats with ≥ 30 full contralateral rotation/30 minutes were included in the study.\n(§2) Rats were randomly grouped into vehicle control group (n = 11) and drug treatment group (n = 10). […] The control group received DMSO/corn oil (vehicle). The treatment continued for three weeks.\nStriatum samples were homogenized and boiled in SDS-PAGE sample buffer and separated onto 10% Tris-glycine gels. Western blotting was performed using anti-TH or anti-DAT (Millipore, Billerica, MA), as primary antibodies and enhanced chemiluminescence signals were quantified and normalized with β-actin."}, "[3]": {"tested_on": "6-OHDA lesioned rats", "assay": "TH-immunoreactive neuron count in the SN of 6-OHDA lesioned rats", "type": "in vivo, rat", "settings": "10mg/kg/day gavage for three weeks, compared to the vehicle-treated group, p < 0.05", "experimental": "as §1, §2\nThe caudal portion of the brains were sectioned in the coronal plane on a cryostat at 12 μm. From a random start corresponding to SNpc position, every 12th section was selected -, fixed with 4% paraformaldehyde and processed for tyrosine hydroxylase (TH) staining using mouse monoclonal anti-TH antibody (1:2000, Chemicon) and the Vectastain Elite ABC kit (Vector Lab) according to manufacturer's instruction. TH positive neurons were counted as described."}, "[4]": {"molecular_target": "T1, RXRα (Homo sapiens, UniProt P19793)", "T1 sequence (P19793 1-462)": "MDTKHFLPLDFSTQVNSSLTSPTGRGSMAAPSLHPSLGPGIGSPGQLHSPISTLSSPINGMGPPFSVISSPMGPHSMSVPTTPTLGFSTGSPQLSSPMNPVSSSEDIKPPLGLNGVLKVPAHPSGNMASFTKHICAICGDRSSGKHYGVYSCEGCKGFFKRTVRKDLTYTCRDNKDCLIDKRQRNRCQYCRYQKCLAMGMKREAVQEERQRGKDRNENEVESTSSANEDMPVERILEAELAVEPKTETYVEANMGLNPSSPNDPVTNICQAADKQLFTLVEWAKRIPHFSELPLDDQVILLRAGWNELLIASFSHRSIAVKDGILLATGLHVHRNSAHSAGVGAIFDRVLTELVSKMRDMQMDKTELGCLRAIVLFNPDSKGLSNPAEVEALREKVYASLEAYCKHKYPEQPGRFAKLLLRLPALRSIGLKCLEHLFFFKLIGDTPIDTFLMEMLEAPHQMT", "assay": "Receptor transactivation assay, RXRα (CV-1 cells, rCRBPII/RXRE-tk-Luc reporter)", "type": "cell-based", "settings": "20h", "excerpt": "(§3) For RXR: CV-1 cells were transfected with rCRBPII/RXRE-tk-Luc reporter gene and an expression vector for RXRα, β, or γ. For RAR: CV-1 cells were transfected with ERE-tk-Luc reporter gene and an expression vector for the appropriate ER-RARα, β, or γ. ER-RARs are fusion proteins, composed of the estrogen receptor (ER) DNA binding domain fused to the ligand binding domain of RARs. This system eliminates interference by the low level of endogenous RAR activity in CV1 cells as the readout comes only from the transfected ER-RAR. For PPARγ: CV-1 cells were transfected with 3x(rAOX/DR1)-tk-Luc reporter gene and an expression vector for PPARγ; for FXR: CV-1 cells were transfected with 3x(IBABP/IR1)-tk-Luc reporter gene and vectors for FXR and RXRα; for LXR: CV-1 cells were transfected with 3x(PLTP/LXRE)-tk-Luc reporter gene with vectors for LXRα or LXRβ. For Nurr1: COS7 cells were transfected with 3xNBRE-tk-luc reporter gene and full length Nurr1 with or without full-length RXRα plasmid. […] Luciferase data were normalized to co-transfected β-gal activity. Luciferase activity is expressed as percent of maximal activity obtained using specific agonists 9-cis-retinoic acid (RXR), retinoic acid (RAR), rosiglitazone (PPARγ), GW4064 (FXR), T0901317 (LXR)."}, "[5]": {"molecular_target": "T2, Nurr1 (Homo sapiens, UniProt P43354)", "T2 construct": "full length Nurr1 with or without full-length RXRα plasmid; expressed in transfected cells; host or cells: COS7", "T2 sequence (P43354 whole entry, species assumed)": "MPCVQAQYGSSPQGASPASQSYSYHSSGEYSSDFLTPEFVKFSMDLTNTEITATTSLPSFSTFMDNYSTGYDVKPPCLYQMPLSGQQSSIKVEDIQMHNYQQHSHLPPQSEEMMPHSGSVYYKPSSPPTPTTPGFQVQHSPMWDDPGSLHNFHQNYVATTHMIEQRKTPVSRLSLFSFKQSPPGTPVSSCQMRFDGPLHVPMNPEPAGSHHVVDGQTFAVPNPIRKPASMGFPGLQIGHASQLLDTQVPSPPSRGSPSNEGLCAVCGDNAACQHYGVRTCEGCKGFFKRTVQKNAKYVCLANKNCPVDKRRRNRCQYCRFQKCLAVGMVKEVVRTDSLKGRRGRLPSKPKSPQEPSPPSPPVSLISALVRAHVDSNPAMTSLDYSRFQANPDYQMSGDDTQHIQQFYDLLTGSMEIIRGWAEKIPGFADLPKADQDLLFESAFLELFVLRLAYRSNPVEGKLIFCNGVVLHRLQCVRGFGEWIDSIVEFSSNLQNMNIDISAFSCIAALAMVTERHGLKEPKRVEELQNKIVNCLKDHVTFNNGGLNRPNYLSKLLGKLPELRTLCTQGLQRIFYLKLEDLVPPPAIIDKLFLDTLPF", "assay": "Nurr1 transactivation assay in COS7 cells without RXRα", "type": "cell-based", "settings": "Nurr1 in the absence of RXRα", "excerpt": "as §3"}, "[6]": {"molecular_target": "LXRβ (Homo sapiens, UniProt P55055)", "sequence (P55055 whole entry, one chain of several)": "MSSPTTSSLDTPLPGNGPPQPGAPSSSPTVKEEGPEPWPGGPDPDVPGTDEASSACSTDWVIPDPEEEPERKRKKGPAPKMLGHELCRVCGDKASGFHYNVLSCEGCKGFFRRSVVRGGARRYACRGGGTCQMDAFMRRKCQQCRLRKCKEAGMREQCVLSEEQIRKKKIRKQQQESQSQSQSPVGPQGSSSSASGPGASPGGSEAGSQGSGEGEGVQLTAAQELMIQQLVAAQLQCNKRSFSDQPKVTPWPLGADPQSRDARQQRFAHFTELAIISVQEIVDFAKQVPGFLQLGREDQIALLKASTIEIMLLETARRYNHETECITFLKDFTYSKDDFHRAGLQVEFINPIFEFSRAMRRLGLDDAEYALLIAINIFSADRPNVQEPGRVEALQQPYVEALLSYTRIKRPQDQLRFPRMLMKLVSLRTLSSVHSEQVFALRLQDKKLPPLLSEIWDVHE", "assay": "Receptor transactivation assay, LXRβ (CV-1 cells)", "type": "cell-based", "settings": "at physiological concentrations", "from_the_text": "For PPARγ: CV-1 cells were transfected with 3x(rAOX/DR1)-tk-Luc reporter gene and an expression vector for PPARγ; for FXR: CV-1 cells were transfected with 3x(IBABP/IR1)-tk-Luc reporter gene and vectors for FXR and RXRα; for LXR: CV-1 cells were transfected with 3x(PLTP/LXRE)-tk-Luc reporter gene with vectors for LXRα or LXRβ. […] Luciferase data were normalized to co-transfected β-gal activity. Luciferase activity is expressed as percent of maximal activity obtained using specific agonists 9-cis-retinoic acid (RXR), retinoic acid (RAR), rosiglitazone (PPARγ), GW4064 (FXR), T0901317 (LXR)."}, "[7]": {"settings": "female, 1 mg/kg/day, 1mg/kg/day gavage, Week 4"}, "[8]": {"settings": "female, 1 mg/kg/day, Female, 1mg/kg/day gavage, Day 1"}, "[9]": {"settings": "female, 3 mg/kg/day, 3mg/kg/day gavage, Week 4"}, "[10]": {"settings": "female, 3 mg/kg/day, Female, 3mg/kg/day gavage, Day 1"}, "[11]": {"settings": "female, 10 mg/kg/day, 10 mg/kg/day gavage, Week 4"}, "[12]": {"settings": "female, 10 mg/kg/day, Female, 10 mg/kg/day gavage, Day 1"}, "[13]": {"settings": "male, 1 mg/kg/day, 1mg/kg/day gavage, Week 4"}, "[14]": {"settings": "male, 1 mg/kg/day, Male, 1mg/kg/day gavage, Day 1"}, "[15]": {"settings": "male, 3 mg/kg/day, 3mg/kg/day gavage, Week 4"}, "[16]": {"settings": "male, 3 mg/kg/day, Male, 3mg/kg/day gavage, Day 1"}, "[17]": {"settings": "male, 10 mg/kg/day, 10 mg/kg/day gavage, Week 4"}, "[18]": {"settings": "male, 10 mg/kg/day, Male, 10 mg/kg/day gavage, Day 1"}}, "note": "Where two headings read alike, the source gives them in different places.", "data": [{"smiles": "CC(/C=C/[C@@H]1C[C@]1(C)c1ccc2c(c1)C(C)(C)CCC2(C)C)=C\\C(=O)O", "note": "[IRX4204]", "values": [{"measurement": "Cmax", "setting": "[1]; [7]", "result": 43.4, "unit": "ng/mL"}, {"measurement": "Tmax", "setting": "[1]; [7]", "result": 15, "unit": "min"}, {"measurement": "Cmax", "setting": "[1]; [8]", "result": 120, "unit": "ng/mL"}, {"measurement": "Tmax", "setting": "[1]; [8]", "result": 30, "unit": "min"}, {"measurement": "AUC(0-t)", "setting": "[1]; female, 1 mg/kg/day, Female, 1mg/kg/day gavage, Day 1, read-out: AUC0-24", "result": 251, "unit": "ng·h/mL"}, {"measurement": "AUC(0-t)", "setting": "[1]; female, 1 mg/kg/day, Female, 1mg/kg/day gavage, Week 4, read-out: AUC0-24", "result": 136, "unit": "ng·h/mL"}, {"measurement": "Cmax", "setting": "[1]; [9]", "result": 101, "unit": "ng/mL"}, {"measurement": "Tmax", "setting": "[1]; [9]", "result": 60, "unit": "min"}, {"measurement": "Cmax", "setting": "[1]; [10]", "result": 362, "unit": "ng/mL"}, {"measurement": "Tmax", "setting": "[1]; [10]", "result": 30, "unit": "min"}, {"measurement": "AUC(0-t)", "setting": "[1]; female, 3 mg/kg/day, Female, 3mg/kg/day gavage, Day 1, read-out: AUC0-24", "result": 975, "unit": "ng·h/mL"}, {"measurement": "AUC(0-t)", "setting": "[1]; female, 3 mg/kg/day, Female, 3mg/kg/day gavage, Week 4, read-out: AUC0-24", "result": 344, "unit": "ng·h/mL"}, {"measurement": "Cmax", "setting": "[1]; [11]", "result": 667, "unit": "ng/mL"}, {"measurement": "Tmax", "setting": "[1]; [11]", "result": 15, "unit": "min"}, {"measurement": "Cmax", "setting": "[1]; [12]", "result": 974, "unit": "ng/mL"}, {"measurement": "Tmax", "setting": "[1]; [12]", "result": 30, "unit": "min"}, {"measurement": "AUC(0-t)", "setting": "[1]; female, 10 mg/kg/day, Female, 10 mg/kg/day gavage, Day 1, read-out: AUC0-24", "result": 2440, "unit": "ng·h/mL"}, {"measurement": "AUC(0-t)", "setting": "[1]; female, 10 mg/kg/day, Female, 10 mg/kg/day gavage, Week 4, read-out: AUC0-24", "result": 940, "unit": "ng·h/mL"}, {"measurement": "Cmax", "setting": "[1]; [13]", "result": 25.7, "unit": "ng/mL"}, {"measurement": "Tmax", "setting": "[1]; [13]", "result": 15, "unit": "min"}, {"measurement": "Cmax", "setting": "[1]; [14]", "result": 58.9, "unit": "ng/mL"}, {"measurement": "Tmax", "setting": "[1]; [14]", "result": 30, "unit": "min"}, {"measurement": "AUC(0-t)", "setting": "[1]; male, 1 mg/kg/day, Male, 1mg/kg/day gavage, Day 1, read-out: AUC0-24", "result": 140, "unit": "ng·h/mL"}, {"measurement": "AUC(0-t)", "setting": "[1]; male, 1 mg/kg/day, Male, 1mg/kg/day gavage, Week 4, read-out: AUC0-24", "result": 27.5, "unit": "ng·h/mL"}, {"measurement": "Cmax", "setting": "[1]; [15]", "result": 54.5, "unit": "ng/mL"}, {"measurement": "Tmax", "setting": "[1]; [15]", "result": 30, "unit": "min"}, {"measurement": "Cmax", "setting": "[1]; [16]", "result": 198, "unit": "ng/mL"}, {"measurement": "Tmax", "setting": "[1]; [16]", "result": 30, "unit": "min"}, {"measurement": "AUC(0-t)", "setting": "[1]; male, 3 mg/kg/day, Male, 3mg/kg/day gavage, Day 1, read-out: AUC0-24", "result": 484, "unit": "ng·h/mL"}, {"measurement": "AUC(0-t)", "setting": "[1]; male, 3 mg/kg/day, Male, 3mg/kg/day gavage, Week 4, read-out: AUC0-24", "result": 280, "unit": "ng·h/mL"}, {"measurement": "Cmax", "setting": "[1]; [17]", "result": 77.2, "unit": "ng/mL"}, {"measurement": "Tmax", "setting": "[1]; [17]", "result": 15, "unit": "min"}, {"measurement": "Cmax", "setting": "[1]; [18]", "result": 542, "unit": "ng/mL"}, {"measurement": "Tmax", "setting": "[1]; [18]", "result": 15, "unit": "min"}, {"measurement": "AUC(0-t)", "setting": "[1]; male, 10 mg/kg/day, Male, 10 mg/kg/day gavage, Day 1, read-out: AUC0-24", "result": 1490, "unit": "ng·h/mL"}, {"measurement": "AUC(0-t)", "setting": "[1]; male, 10 mg/kg/day, Male, 10 mg/kg/day gavage, Week 4, read-out: AUC0-24", "result": 422, "unit": "ng·h/mL"}, {"measurement": "DAT content in the lesioned striatum versus non-lesioned side", "setting": "[2]", "result": "almost identical to those in the non-lesioned side"}, {"measurement": "TH content in the lesioned striatum versus non-lesioned side", "setting": "[2]", "result": "almost identical to those in the non-lesioned side"}, {"measurement": "loss of TH-immunoreactive neurons in the SN", "setting": "[3]", "result": "significantly reduced the loss"}, {"measurement": "concentration that fully activates RXRα", "setting": "[4]", "result": 1, "unit": "nM"}, {"measurement": "concentration that partially activates RXRα", "setting": "[4]", "result": 0.1, "unit": "nM"}, {"measurement": "reporter gene activation", "setting": "[5]", "result": "base level of reporter gene activation"}, {"measurement": "activation of RXR heterodimer of LXRβ", "setting": "[6]", "result": "does not activate"}]}]}
